Measured values as given in US11160764B2, “Drug delivery composition containing silyl polymers” (Medherant Limited, priority 2015, dated 2021).
Converted amounts (≈) assume the structure as drawn. Read-outs that look alike come from different tables or passages of the source.

How the values were obtained:
[1] = Solubility of drugs in the adhesive compositions / patches
Experimental: Three different grades of composition were employed in solubility experiments: A, B and C (see below). A is the grade which was used for initial studies and further was used as the standard grade for solubility tests.
A sample of composition is pre-heated to 80° C. in a closed cartridge or inert environment to avoid contact with moisture and approximately 10 ml of the composition is added into a beaker and weighed. A desired quantity of drug, preservative and excipients are then added to the mixture. The mixture is mixed until it has been homogenised and is then cast with the help of a heated Meyer bar onto a release liner. Once cast, the layers of composition are cured at 60° C. in a humid environment during 16 hours.
In all experiments benzyl alcohol (BenzOH) was employed as a co-solvent. BenzOH is widely used in both pharmaceutical and cosmetic formulations as a preservative, and therefore its addition is required to improve the shelf life of patches. […] Additionally, it acts as a solvent for drugs improving their dissolution in the polymer matrix compositions. The total amount of BenzOH in all formulations was in a range of 1-3% w/w.
All compounds in the liquid state were added by volume, which was estimated using their specific densities.

[2] = cited from earlier work
[3] = Drug release analysis: permeation from patch across Pion membrane in Franz cell; settings: patch of the invention, PBS pH 7.4
Experimental: The membrane and patch are then placed in a Franz cell and then a PBS pH 7.4 buffer solution is added. Samples are taken at one hour interval for 8 hours. The amount of drug released is calculated using a validated HPLC/UV-Vis method depending on the drug in question.

In the case of CN(Cc1cnc2nc(N)nc(N)c2n1)c1ccc(C(=O)N[C@@H](CCC(=O)O)C(=O)O)cc1 [Methotrexate], the Sol. type [1] is reported as “Molecular”, the Max. mass fraction ([1]; grade A composition (Table 5)) is reported as 7% and the “Soluble in A” value ([1]; grade A composition (Table 5)) is reported as “✓”. For the same compound, the Solubility in water [2] was “insoluble”.

For CC(C(=O)O)c1cccc(C(=O)c2ccccc2)c1 (stereo not drawn) [Ketoprofen], the Permeated drug amount ([3]; sample 1 hours) was 0.90 μg cm^−2, the Permeated drug amount ([3]; sample 2 hours) was 4.59 μg cm^−2 and the Permeated drug amount ([3]; sample 4 hours) was 17.37 μg cm^−2. The Permeated drug amount ([3]; sample 6 hours) was 35.67 μg cm^−2.

For CN1CCCC1c1cccnc1 (stereo not drawn) [Nicotine], the “Concentration / mass fraction in patches can be increased up to” value [1] was “up to 30 % w/w”, the Max. mass fraction [1] was 30% and the Sol. type [1] was “Molecular”. For the same compound, the “Solubility in compositions and patches of the invention, in words” value [1] was “freely soluble”, the “Soluble in A” value [1] was “✓” and the Permeated drug amount ([3]; sample 1 hours) was 2.26 μg cm^−2. It also gave a Permeated drug amount ([3]; sample 2 hours) of 5.05 μg cm^−2, a Permeated drug amount ([3]; sample 4 hours) of 13.76 μg cm^−2 and a Permeated drug amount ([3]; sample 6 hours) of 18.33 μg cm^−2.

With O=C(O)Cc1ccccc1Nc1c(Cl)cccc1Cl [Diclofenac] the Permeated drug amount ([3]; sample 1 hours) was 0.11 μg cm^−2, the Permeated drug amount ([3]; sample 2 hours) was 0.16 μg cm^−2 and the Permeated drug amount ([3]; sample 4 hours) was 0.39 μg cm^−2. It also gave a Permeated drug amount ([3]; sample 6 hours) of 0.47 μg cm^−2.

For COC(=O)c1ccccc1O [Methyl salicylate], the Sol. type [1] was “Molecular”, the “Solubility in adhesive F15” value ([1]; adhesive grade F15) was “✓” and the “Solubility in adhesive F16” value ([1]; adhesive grade F16) was “✓”. For the same compound, the “Solubility in adhesive F17” value ([1]; adhesive grade F17) was “✓”, the “Conc., wt %” value ([1]; grade A composition) was >5 wt % and the “Solubility of analgesic drugs in compositions: A” value (shortened to “Solubility … in compositions: A”) ([1]; grade A composition) was “✓”. The Max. mass fraction ([1]; grade A composition (Table 5)) was 30%, the “Soluble in A” value ([1]; grade A composition (Table 5)) was “✓” and the “Conc., wt %” value ([1]; grade B composition) was >5 wt %. For the same compound, the “Solubility of analgesic drugs in compositions: B” value (“Solubility … in compositions: B” for short) ([1]; grade B composition) was “✓”, the “Drug solubility compared between all three grades” value ([1]; grades A, B and C) was “identical” and the “Solubility in the standard grade (A) composition, in words” value (“Solubility in the standard grade” below) ([1]; standard grade (A)) was “readily soluble”. The Solubility in water [2] was 690 µg/mL (≈ 4540 µM), the Permeated drug amount ([3]; sample 1 hours) was 18.25 μg cm^−2 and the Permeated drug amount ([3]; sample 2 hours) was 24.58 μg cm^−2. It also gave a Permeated drug amount ([3]; sample 4 hours) of 59.78 μg cm^−2 and a Permeated drug amount ([3]; sample 6 hours) of 83.03 μg cm^−2.

For O=C(O)c1ccccc1O [Salicylic acid], the “Conc., wt %” value [1] was >5 wt %, the Max. mass fraction [1] was 30% and the Sol. type [1] was “Molecular”. The “Solubility in the standard grade” value [1] was “readily soluble”, the “Solubility … in compositions: A” value [1] was “✓” and the “Solubility … in compositions: B” value [1] was “✓”. For the same compound, the “Soluble in A” value [1] was “✓”, the Permeated drug amount ([3]; sample 1 hours) was 3.38 μg cm^−2 and the Permeated drug amount ([3]; sample 2 hours) was 11.92 μg cm^−2. The Permeated drug amount ([3]; sample 4 hours) was 31.75 μg cm^−2 and the Permeated drug amount ([3]; sample 6 hours) was 54.71 μg cm^−2.

For C[C@@H]1[C@H](O)[C@@H](C)/C=C/C=C/CC/C=C/C=C/C=C/C=C/C(O[C@H]2O[C@H](C)[C@@H](O)[C@H](N)[C@@H]2O)CC2O[C@](O)(CC(O)C(O)CCC(O)CC(O)CC(O)CC(=O)O[C@H]1C)CC(O)C2C(=O)O (stereo partly drawn) [Nystatin], the Sol. type ([1]; grade A composition (Table 5)) was “Molecular” and the “Soluble in A” value ([1]; grade A composition (Table 5)) was “✓”.

For C[C@]12C=CC(=O)C=C1CC[C@@H]1[C@@H]2[C@@H](O)C[C@@]2(C)[C@H]1CC[C@]2(O)C(=O)CO [Prednisolone], the Sol. type ([1]; grade A composition (Table 5)) was “Dispersion”.

For Ivermectin, the Max. mass fraction ([1]; grade A composition (Table 5)) was 5%, the Sol. type ([1]; grade A composition (Table 5)) was “Molecular” and the “Soluble in A” value ([1]; grade A composition (Table 5)) was “✓”.

For CC(=O)[C@H]1CC[C@H]2[C@@H]3CCC4=CC(=O)CC[C@]4(C)[C@H]3CC[C@]12C [Progesterone], the Max. mass fraction [1] was 15%, the Sol. type [1] was “Molecular” and the “Soluble in A” value [1] was “✓”. For the same compound, the Solubility in water [2] was 9 µg/mL (≈ 28.6 µM).

In the case of CC(C(=O)O)c1ccc(-c2ccccc2)c(F)c1 (stereo not drawn) [Flurbiprofen], the Sol. type [1] is reported as “Molecular”, the “Conc., wt %” value ([1]; grade A composition) is reported as >5 wt % and the “Solubility … in compositions: A” value ([1]; grade A composition) is reported as “✓”. The Max. mass fraction ([1]; grade A composition (Table 5)) was 15%, the “Soluble in A” value ([1]; grade A composition (Table 5)) was “✓” and the “Conc., wt %” value ([1]; grade B composition) was >5 wt %. The “Solubility … in compositions: B” value ([1]; grade B composition) was “✓” and the Solubility in water [2] was 25 µg/mL (≈ 102 µM).

With COc1cc(Cc2cnc(N)nc2N)cc(OC)c1OC [Trimethoprim] the Sol. type [1] was “Dispersion”.

For CC(C)(C)NCC(O)c1ccc(O)c(CO)c1 (stereo not drawn) [Salbutamol], the Max. mass fraction [1] was 5%, the Sol. type [1] was “Molecular” and the “Soluble in A” value [1] was “✓”.

For CN1C(C(=O)Nc2ccccn2)=C(O)c2ccccc2S1(=O)=O [Piroxicam], the Sol. type [1] was “Molecular”, the “Conc., wt %” value ([1]; grade A composition) was ~2.5 wt % and the “Solubility … in compositions: A” value ([1]; grade A composition) was “✓”. The Max. mass fraction ([1]; grade A composition (Table 5)) was 2.5%, the “Soluble in A” value ([1]; grade A composition (Table 5)) was “✓” and the “Conc., wt %” value ([1]; grade B composition) was ~2.5 wt %. The “Solubility … in compositions: B” value ([1]; grade B composition) was “✓” and the Limited solubility ([1]; standard grade (A)) was ~2.5 % w/w.

For COc1ccc2c(c1)c(CC(=O)O)c(C)n2C(=O)c1ccc(Cl)cc1 [Indomethacin], the “Conc., wt %” value [1] was >5 wt %, the Max. mass fraction [1] was 10% and the Sol. type [1] was “Molecular”. The “Solubility … in compositions: A” value [1] was “✓”, the “Solubility … in compositions: B” value [1] was “✓” and the “Soluble in A” value [1] was “✓”. For the same compound, the Solubility in water [2] was 2 µg/mL (≈ 5.59 µM).

Work on Cn1c(=O)c2c(ncn2C)n(C)c1=O [Caffeine] yielded a Permeated drug amount ([3]; sample 1 hours) of 0.19 μg cm^−2, a Permeated drug amount ([3]; sample 2 hours) of 2.33 μg cm^−2 and a Permeated drug amount ([3]; sample 4 hours) of 3.26 μg cm^−2. The Permeated drug amount ([3]; sample 6 hours) was 21.89 μg cm^−2.

In the case of O=C(Oc1ccccc1C(=O)O)c1ccccc1O [Salsalate], the “Conc., wt %” value [1] is reported as >5 wt %, the Max. mass fraction [1] is reported as 10% and the Sol. type [1] is reported as “Molecular”. For the same compound, the “Solubility … in compositions: A” value [1] was “✓”, the “Solubility … in compositions: B” value [1] was “✓” and the “Soluble in A” value [1] was “✓”. The Solubility in water [2] was 246 µg/mL (≈ 953 µM).

In the case of CC(=O)Oc1ccccc1C(=O)O [Aspirin], the Sol. type [1] is reported as “Dispersion”.

In the case of CC(C)[C@@H]1CC[C@@H](C)C[C@H]1O [Levomenthol], the “Conc., wt %” value [1] is reported as >5 wt % and the Max. mass fraction [1] is reported as 30%.

With O=C(C1CCCCC1)N1CC(=O)N2CCc3ccccc3C2C1 (stereo not drawn) [Praziquantel] the Max. mass fraction [1] was 10%, the Sol. type [1] was “Molecular” and the “Soluble in A” value [1] was “✓”.

For C[C@]12CC[C@H]3[C@@H](CCC4=CC(=O)CC[C@@]43C)[C@@H]1CC[C@@H]2O [Testosterone], the Max. mass fraction ([1]; grade A composition (Table 5)) was 5%, the Sol. type ([1]; grade A composition (Table 5)) was “Molecular” and the “Soluble in A” value ([1]; grade A composition (Table 5)) was “✓”.

For CCCNC(C)C(=O)Nc1ccccc1C (stereo not drawn) [Prilocaine], the “Distribution of the drug in the patch” value [1] was “uniformly distributed in the patch in a form of micro particles”, the Sol. type [1] was “Dispersion” and the “Solubility in the standard grade” value [1] was “poor solubility”. The Solubility in water [2] was 540 µg/mL (≈ 2450 µM).

With [H]/N=C(\N/C(=N/[H])NCCCCCCNC(=N)NC(=N)Nc1ccc(Cl)cc1)Nc1ccc(Cl)cc1 [Chlorhexidine] the Sol. type [1] was “Molecular”, the “Solubility in compositions and patches of the invention” value ([1]; Medherant patches / compositions of the invention) was ~3.5 % w/w and the Max. mass fraction ([1]; grade A composition (Table 5)) was 3.5%. For the same compound, the “Soluble in A” value ([1]; grade A composition (Table 5)) was “✓”.

For Cc1ccc2c(Cl)cc(Cl)c(O)c2n1 [Chlorquinaldol], the Max. mass fraction ([1]; grade A composition (Table 5)) was 15%, the Sol. type ([1]; grade A composition (Table 5)) was “Molecular” and the “Soluble in A” value ([1]; grade A composition (Table 5)) was “✓”. The “Solubility in compositions and patches of the invention, in words” value ([1]; grades of the compositions of the invention) was “good dissolution”, the “Concentration / mass fraction in patches can be increased up to” value ([1]; patches of the invention) was “up to 15 % w/w” and the Solubility in water [2] was “insoluble”.

In the case of CCCN[C@H]1CCc2nc(N)sc2C1 [Pramipexole], the Sol. type [1] is listed as “Dispersion” and the Solubility in water [2] is listed as 3900 µg/mL (≈ 18500 µM).

In the case of C[C@H]1[C@H](OC(=O)CCC(=O)O)O[C@@H]2O[C@@]3(C)CC[C@H]4[C@H](C)CC[C@@H]1[C@@]24OO3 [Artesunate], the Max. mass fraction [1] is reported as 6%, the Sol. type [1] is reported as “Molecular” and the “Soluble in A” value [1] is reported as “✓”. For the same compound, the Solubility in water [2] was 56 µg/mL (≈ 146 µM).

CC(C)Cc1ccc(C(C)C(=O)O)cc1 (stereo not drawn) [Ibuprofen] gave a Permeated drug amount ([3]; sample 1 hours) of 15.46 μg cm^−2, a Permeated drug amount ([3]; sample 2 hours) of 37.23 μg cm^−2 and a Permeated drug amount ([3]; sample 4 hours) of 73.85 μg cm^−2. It also gave a Permeated drug amount ([3]; sample 6 hours) of 99.60 μg cm^−2.

For C[C@@H]1CC[C@H]2[C@@H](C)C(=O)O[C@@H]3O[C@@]4(C)CC[C@@H]1[C@]32OO4 [Artemisinin], the Max. mass fraction [1] was 9%, the Sol. type [1] was “Molecular” and the “Soluble in A” value [1] was “✓”. For the same compound, the Solubility in water [2] was “insoluble”.

For CC1(C)S[C@@H]2[C@H](NC(=O)Cc3ccccc3)C(=O)N2[C@H]1C(=O)O [Penicillin G], the Sol. type ([1]; grade A composition (Table 5)) was “Dispersion”.
